The term IC50 denotes the concentration that inhibits the measured activity by half. Low readings indicate greater potency in that assay, high ones weaker potency in that assay. As usually defined, the CC50 is the concentration at which the toxic effect on the cells reaches its halfway point.

In brackets after ≈: the same amount, converted by molar mass.

The source of these data is patent EP0984967B1, “NAPHTHYRIDINE DERIVATIVES AND THEIR ANALOGUES INHIBITING CYTOMEGALOVIRUS” (BIOCHEM PHARMA INC, priority 1996, dated 1997).

Holding throughout (assay type): cell-based
Data set [1] has as its system HCMV virus. The experiment in a line: CMV plaque reduction assay. As for the experimental part:
The anti-CMV activity of test compounds was evaluated in a plaque reduction assay as follows: In 12-well tissue culture dishes, 1.5X10E5 or Hs68 cells (human […] fibroblast cell line) were plated per well with 2 ml of DMEM 10% fetal bovine serum and incubated in 5% CO2/air at 37°C overnight or until cells were ready. The medium was then removed and the cells inoculated with 0.5 ml (containing 200 pfu/ml diluted in DMEM 2% FBS) of HCMV virus in each well. After adsorption at 37°C for 2 hours, the virus was removed and cell monolayers were overlaid (1ml) with DMEM 2% FBS containing test compounds at various concentrations. The cells were then incubated at 37°C for 8 days, and then fixed with one volume (1ml) of formaldehyde 8%/water or PBS 1X for 30 minutes. The formaldehyde solution was removed and the cell monolayers were stained with crystal violet 2%/EtOH 20% for a few seconds and then rinsed with water. Monolayers were examined for the presence of plaques under a microscope, the percentage of plaque reduction determined for each compound by comparison with the untreated cells (no test compound) and the 50% inhibitory concentration (IC50) established. Ganciclovir was used as a positive control. Note: DMEM medium contained 1% glutamine and 1% pen/strep
(In general: In a plaque reduction assay, fewer plaques than in the control indicate reduced infectivity or spread.)

Data set [2] in a line: Cytotoxicity assay ([3H]-methyl thymidine incorporation, cell proliferation). The following applies: vero-34, hs-68 or wi-38; for CC50 at 48 h: 50% inhibitory concentration of cell proliferation, 48 hours with compound then 18 hours [3H]-methyl thymidine, cell line not given. How it is done:
(§1) The cytotoxicity of test compounds was evaluated according to the following procedure: Flat bottom 96 well plates were plated with 5X10E3 Vero-34 cells/well and 1X10E4 Hs-68 or Wi-38 cells/well respectively and incubated overnight at 37°C and 5% CO2/air. After incubation, the supernatant medium was removed and replaced with test compound dilutions in 2% DMEM (150ul). The cells were then incubated 48 hours in a 5% CO2 incubator at 37°C. […] Cells were then collected onto a fiberglass filter (Printed Filtermat A 1450-421 Wallac) with a Tomtec cell harvester. Suspended cells were collected directly onto filter while for adherent cells, the medium was first removed, then the cells washed with PBS and trypsinized for 2-3 minutes (50µl trypsin/well) before collecting. Filters were dried for 1 hour at 37-40°C and then placed into bags (1450-microbeta # 1450-432 Wallac) with 4.5ml of Betascint and counts obtained with Microbeta 1450 Wallac (protocol 1). The percent of cell proliferation was determined by comparison to the control (no test compound) and thereby establishing 50% inhibitory concentration is established.
In general terms: Uptake of a labelled nucleoside into DNA is a usual measure of proliferation.

For data set [3], the system named is Vero-34 cells, Hs-68 or Wi-38 cells. The description is as above. The following applies: 50% inhibitory concentration of cell proliferation, 48 hours with compound then 18 hours [3H]-methyl thymidine; cell line not given. As for the experimental part: as §1
Where [4] appears, read: Human betaherpesvirus 5, 192 h, plaque reduction, HCMV in Hs68 cells (human foreskin fibroblast cell line), 8 days at 37°C.

As for `CC(C)(C)OC(=O)NCCCCNC(=O)Nc1ccc2cnccc2n1` [compound #48, 1-(N-boc-4-aminobutyl)-3-[1,6]naphthyridin-2-yl-urea], the IC50 in data set [1] (setting [4]) was in the range of 0.1 to 1 µg/mL (≈ 0.278 to 2.78 µM). The CC50 at 48 h in data set [2] was in the range of 3.15 to 6.25 µg/mL (≈ 8.76 to 17.4 µM).

Turning to `Cl.NCCCCNC(=O)Nc1ccc2cnccc2n1` [compound #49, 1-(4-aminobutyl)-3-[1,6]naphthyridin-2-yl-urea hydrochloride], the IC50 in data set [1] (setting [4]) was 1 to 5 µg/mL. For the same compound, the CC50 at 48 h in data set [2] lay in the range of 6.25 to 12.5 µg/mL.

`C[C@H](NC(=O)Nc1ccc2cnccc2n1)c1ccccc1` [compound #50, 1-[(S)-α-methylbenzyl]-3-[1,6]naphthyridin-2-yl-urea] gave an IC50 in data set [1] (setting [4]) of 1 to 10 µg/mL (≈ 3.42 to 34.2 µM). The CC50 at 48 h in data set [2] is 12.5 to 25 µg/mL (≈ 42.8 to 85.5 µM).

In data set [1] (setting [4]), `C[C@@H](NC(=O)Nc1ccc2cnccc2n1)c1ccccc1` [compound #51, 1-[(R)-α-methylbenzyl]-3-[1,6]naphthyridin-2-yl-urea] had an IC50 of 0.01 to 0.1 µg/mL (≈ 0.0342 to 0.342 µM). For the same compound, the CC50 at 48 h in data set [2] was < 3.15 µg/mL.

`CCCCNC(=O)Nc1ccc2cnccc2n1` [compound #53, 1-butyl-3-[1,6]naphthyridin-2-yl-urea] showed an IC50 in data set [1] (setting [4]) of 0.1 to 1 µg/mL (≈ 0.409 to 4.09 µM). In data set [2], the CC50 at 48 h lay within 2.5 to 5 µg/mL (≈ 10.2 to 20.5 µM).

In data set [1] (Human betaherpesvirus 5, positive control tested in tandem with the compounds, plaque reduction assay), `Nc1nc(O)c2ncn(COC(CO)CO)c2n1` [ganciclovir, reference compound] had an IC50 of 0.1 to 0.5 µg/mL (≈ 0.392 to 1.96 µM). The CC50 in data set [2] (positive control tested in tandem with the compounds, value varied between runs) lay in the range of 10 to 200 µg/mL (≈ 39.2 to 784 µM).

Turning to “N-(2propoxybenzyl)-2-[1,6]naphthyridine-2-carboxamide [compound #26]”, in data set [3], the CC50 was ~1.5 µg/mL.
